Data on four compounds can be found in ChEMBL document CHEMBL1201862, “PubChem BioAssay data set” (2004).

The GI50 is the concentration that inhibits growth by half.

What all share (assay): DTP human tumour cell line panel, 48 h
In assay [1] the test system is HL-60.
Assay [2] relates to RPMI-8226.
The test system of assay [3] is UACC-257.
Assay [4] concerns OVCAR-5.
Assay [5] relates to NCI-H522.
The test system of assay [6] is NCI/ADR-RES.
Assay [7] relates to UO-31.
Assay [8] deals with TK-10.
For assay [9], the system named is SK-MEL-5.
Assay [10] deals with SN12C.
Assay [11] has as its system SF-539.
For assay [12], the system named is HCT-15.
Assay [13] has as its system HT-29.
Assay [14] relates to HOP-62.
For assay [15], the system named is MDA-MB-435.
In assay [16] the test system is ACHN.
Assay [17] has as its system U-251.
The subject of assay [18] is SK-MEL-2.
Assay [19] relates to UACC-62.
Assay [20] concerns A498.

Structures are written as SMILES.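 Step 1: Grow cells in 96-well plates. Step 2: Expose to compound for 48 hours at 5 concentrations. Step 3: Interpolate endpoints linearly; if unreached, use highest concentration. Here, GI50 denotes the concentration required for 50% inhibition of growth.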 Activity calls are given as the source filed them. No stated cut-off is given here; in the data, active = GI50 up to about 1.1 µM and inactive = higher.

For the compound `CC(C)(CCCCC(C)(C)[N+](C)(C)C)[N+](C)(C)C`, the GI50 in assay [1], in [2], in assay [3], in assay [4], in assay [5] and in [6] was > 100 µM (inactive) each time. Moreover, the GI50 in assay [7] was > 100 µM (inactive); in assay [8], > 100 µM (inactive); in assay [9] it was > 100 µM (inactive); in assay [10], > 100 µM (inactive); in assay [11], > 100 µM (inactive); in [12], over 100 µM. In addition, the GI50 in assay [13] is > 100 µM (inactive); in [14] it was > 100 µM (inactive); in assay [15], > 100 µM (inactive); in assay [16] it was > 10 µM (inactive); in assay [17] it was > 100 µM (inactive).
For `COC(=O)NCCc1n[nH]c2c1C(=O)C=C(OC)C2=O`, the GI50 in assay [1] was 16.6 µM (inactive); in [2] it was 24.5 µM (inactive); in assay [3], 15 µM (inactive); in [4], 20.7 µM (inactive); in [5], 23.9 µM (inactive); in assay [6], > 100 µM (inactive). Moreover, the GI50 is 24.3 µM (inactive) in assay [7]; 54.2 µM (inactive) in assay [18]; 43.9 µM (inactive) in [8]; 15.5 µM (inactive) in [9]; 20.3 µM (inactive) in assay [10]; 19.4 µM (inactive) in assay [11]. Moreover, the GI50 in assay [12] was 28.4 µM; in assay [13] it was 42.6 µM (inactive); in assay [14], 20.9 µM (inactive); in assay [15] it was 14.6 µM (inactive); in assay [16], 19.1 µM (inactive); in [17] it was 16.7 µM (inactive). The GI50 in assay [19] was 25.4 µM (inactive).
On to `COC(=O)C(CCCCN)NC(=O)C(CCCCN)NC(=O)C(CCCCN)NC(C)=O.Cc1ccc(C(=O)Nc2ccc(S(=O)(=O)O)c3cc(S(=O)(=O)O)cc(S(=O)(=O)O)c23)cc1NC(=O)c1cccc(NC(=O)Nc2cccc(C(=O)Nc3cc(C(=O)Nc4ccc(S(=O)(=O)O)c5cc(S(=O)(=O)O)cc(S(=O)(=O)O)c45)ccc3C)c2)c1`, for which the GI50 in [1], in [2], in assay [3], in assay [4], in assay [6] and in assay [7] was > 50 µM (inactive) throughout. Moreover, the GI50 in assay [20] is > 50 µM (inactive); in assay [18] it was > 50 µM (inactive); in assay [9] it was > 50 µM (inactive); in [10], > 50 µM (inactive); in assay [11], > 50 µM (inactive); in assay [12], 18.6 µM. Further, the GI50 in assay [13], in [15], in assay [16], in assay [17] and in assay [19] was > 50 µM (inactive) each time.
For the compound `Nc1ccc2ccc(N3CCNCC3)nc2n1`, the GI50 is 34 µM (inactive) in assay [1]; 84.3 µM (inactive) in [2]; > 100 µM (inactive) in [3]; 32.4 µM (inactive) in [4]; 45.3 µM (inactive) in [5]; > 100 µM (inactive) in [6]. Further, the GI50 is 50.4 µM (inactive) in assay [7]; 35.1 µM (inactive) in assay [18]; > 100 µM (inactive) in [8]; 51.2 µM (inactive) in [10]; 71.3 µM (inactive) in assay [11]; 76.6 µM in [12]. Besides, the GI50 is 33.7 µM (inactive) in [13]; 23.9 µM (inactive) in [14]; 49.7 µM (inactive) in assay [15]; 74.8 µM (inactive) in assay [16]; 80.2 µM (inactive) in [17]; 59.2 µM (inactive) in assay [19].
